Drawing on US4241056A, “Penicillins and salts thereof” (Boehringer Ingelheim GmbH, priority 1978, dated 1980), this text covers MIC for 9 compounds.

Values after ≈ are worked out from the molar mass of the structure shown.

Holding throughout (test): MIC, serial dilution test in the microtiter system
Format in all cases: cell-based

Assay [1] has as its system pseudomonas aeruginosa hamburgensis. The following applies: 18 h, pseud. aerug. hamb., 37° C., 18-20 hours. On the procedure:
(§1) The tests were performed according to the method of the serial dilution test in the microtiter system. The effect of the substances on bacteriostasis was examined in a fluid medium. The activity on bacteriostatis was examined at the following concentrations:
(§2) 10 gm of peptone, 8 gm of meat extract-oxoid, 3 gm of sodium chloride, 2 gm of sec. sodium phosphate were diluted with distilled water to 1000 ml (pH 7.2-7.4). Only in the test against streptococci 1% of glucose was added. The age of the primary cultures was about 20 hours. The standardizations of the pathogen suspension was effected by using a photometer according to "Eppendorf" (test tube diameter 14 mm, filter 546 nm) with the aid of the turbidity of a comparison suspension consisting of barium sulfate, this suspension being prepared by addition of 3.0 ml of 1% barium chloride solution to 97 ml of 1% sulfuric acid. After the standardization, streptococcus aronson were further diluted to a concentration of 1:15 and the other germs to a concentration of 1:1500 by menas of a sodium chloride solution.
(§3) 16 mg of the test substance were put into a 10 ml measuring flask and filled up to the mark with the solvent. The further dilution series was standardized with distilled water or the respective solvent.
(§4) The cavities of the microtiter plates were filled with 0.2 ml of nutrient medium. Then, 0.01 ml of the corresponding test substance dilution was added and inoculated with 0.01 ml of the standardized suspension. The bacteria were incubated at 37° C. for 18-20 hours. Control tests merely using the solvent were carried out simultaneously.
(§5) The measurement was carried out macroscopically to determine the minimal inhibitory (threshold) concentration, i.e. the lowest still bacteriostatically effective concentration.
(§6) Staphylococcus aureus SG 511, streptococcus aronson, streptococcus faecalis ATCC 10541, escherichia coli ATCC 9637, 11 775 and escherichia coli 12593/74 (β-lactamase carrier), pseudomonas aeruginosa hamburgensis and ATCC 10145, serratia marcescens ATCC 13 880, klebsiella pneumoniae ATCC 10 031 and 272 and proteus mirabilis hamburgensis.

Assay [2] has as its system pseudomonas aeruginosa ATCC 10145. The following applies: ATCC10145, 18 h, pseud. aerug. ATCC 10145, 37° C., 18-20 hours. On the procedure:
as §1, §2, §3, §4, §5, §6

The test system of assay [3] is escherichia coli 12593/74 (β-lactamase carrier). The settings on record: 18 h, E. coli 12593/74 (β-lactamase carrier), 37° C., 18-20 hours. On the procedure: as §1, §2, §3, §4, §5, §6
The subject of assay [4] is serratia marcescens ATCC 13 880. The settings on record: ATCC13, 18 h, serrat marcesc., 37° C., 18-20 hours. Here is the method:
as §1, §2, §3, §4, §5, §6

A further assay has as its system streptococcus aronson. The settings on record: 18 h, strept. aronson, 1% glucose added, 37° C., 18-20 hours. Here is the method:
as §1, §2, §3, §4, §5, §6

Assay [5] has as its system klebsiella pneumoniae 272. The following applies: 18 h, klebs pneum. 272, 37° C., 18-20 hours. On the procedure: as §1, §2, §3, §4, §5, §6
Assay [6] concerns klebsiella pneumoniae ATCC 10 031. The settings on record: 18 h, klebs pneum ATCC 10031, 37° C., 18-20 hours. Here is the method:
as §1, §2, §3, §4, §5, §6

Assay [7] has as its system proteus mirabilis hamburgensis. The settings on record: 18 h, prot. mirabilis, 37° C., 18-20 hours. On the procedure:
as §1, §2, §3, §4, §5, §6

Assay [8] relates to escherichia coli ATCC 11775. The following applies: ATCC11775, 18 h, E. coli ATCC 11775, 37° C., 18-20 hours. Here is the method: as §1, §2, §3, §4, §5, §6
In assay [9] the test system is streptococcus faecalis ATCC 10541. The settings on record: Enterococcus faecalis, ATCC10541, 18 h; strept. faecal.; 37° C., 18-20 hours. Here is the method: as §1, §2, §3, §4, §5, §6
The subject of assay [10] is escherichia coli ATCC 9637. The following applies: ATCC9637, 18 h, E. coli ATCC 9637, 37° C., 18-20 hours. Here is the method: as §1, §2, §3, §4, §5, §6
Assay [11] deals with Staphylococcus aureus SG 511. The settings on record: SG511, 18 h, Staph. Aureus SG 511, 37° C., 18-20 hours. On the procedure: as §1, §2, §3, §4, §5, §6

What is called MIC is the smallest concentration in the dilution series that meets the test's criterion for growth inhibition. Turning to `CC1(C)S[C@@H]2[C@H](NC(=O)[C@H](NC(=O)Nc3cnc(Nc4ccc(Cl)c(Cl)c4)nc3O)c3ccc(O)cc3)C(=O)N2[C@H]1C(=O)O` [J, D-α-[3-(2-m,p-dichloroanilino-4-hydroxy-5-pyrimidyl)-ureido]-p-hydroxybenzyl-penicillin sodium], the MIC in assay [1] amounted to 2.5 µg/mL; in assay [2] it was 2.5 µg/mL; in assay [3], 10 µg/mL; in assay [4], 0.6 µg/mL; in the assay with streptococcus aronson it was 0.02 µg/mL; in assay [5], 2.5 µg/mL. Besides, the MIC in assay [6] was determined as 2.5 µg/mL; in assay [7], 0.6 µg/mL; in assay [8], 0.6 µg/mL; in assay [9], 2.5 µg/mL; in [10] it was 1.25 µg/mL.

For the compound `CC1(C)S[C@@H]2[C@H](NC(=O)[C@H](NC(=O)Nc3cnc(N4CCOCC4)nc3O)c3ccc(O)cc3)C(=O)N2[C@H]1C(=O)O` [K, D-α-[3-(4-hydroxy-2-morpholiono-5-pyrimidyl)-ureido]-p-hydroxybenzyl-penicillin sodium], the MIC was 2.5 µg/mL in assay [1]; 1.25 µg/mL in assay [2]; > 80 µg/mL in assay [3]; 5 µg/mL in assay [4]; 0.3 µg/mL in the assay on streptococcus aronson; 80 µg/mL in [5]. In addition, the MIC in assay [6] is > 80 µg/mL; in assay [7] it was 1.25 µg/mL; in assay [11], 1.25 µg/mL; in assay [8], 2.5 µg/mL; in assay [9], 10 µg/mL; in [10] it was 2.5 µg/mL.

For `CC1(C)S[C@@H]2[C@H](NC(=O)[C@H](NC(=O)Nc3cnc(NC4CCCCC4)nc3O)c3ccc(O)cc3)C(=O)N2[C@H]1C(=O)O` [L, D-α-[3-(2-cyclohexylamino-4-hydroxy-5-pyrimidyl)-ureido]-p-hydroxybenzyl-penicillin sodium], the MIC is 2.5 µg/mL in [1]; 2.5 µg/mL in [2]; > 80 µg/mL in assay [3]; 1.25 µg/mL in assay [4]; 0.08 µg/mL against streptococcus aronson; 10 µg/mL in [5]. The MIC came to 20 µg/mL in [6]; 0.6 µg/mL in assay [7]; 0.3 µg/mL in [11]; 1.25 µg/mL in [8]; 5 µg/mL in assay [9]; 0.6 µg/mL in [10].

On to `CN(C)C(=O)Nc1ncc(NC(=O)N[C@@H](C(=O)N[C@@H]2C(=O)N3[C@@H]2SC(C)(C)[C@@H]3C(=O)O)c2ccc(O)cc2)c(O)n1` [M], for which the MIC was 5 µg/mL (≈ 8.49 µM) in [1]; 5 µg/mL (≈ 8.49 µM) in assay [2]; > 80 µg/mL in assay [3]; 10 µg/mL (≈ 17 µM) in assay [4]; 0.3 µg/mL (≈ 0.51 µM) against streptococcus aronson; > 80 µg/mL in assay [5]. For the same compound, the MIC in assay [6] is > 80 µg/mL; in assay [7], 2.5 µg/mL (≈ 4.25 µM); in assay [11], 1.25 µg/mL (≈ 2.12 µM); in assay [8], 2.5 µg/mL (≈ 4.25 µM); in assay [9] it was 80 µg/mL (≈ 136 µM); in [10] it was 10 µg/mL (≈ 17 µM).

With `CNc1ncc(NC(=O)N[C@@H](C(=O)N[C@@H]2C(=O)N3[C@@H]2SC(C)(C)[C@@H]3C(=O)O)c2ccc(O)cc2)c(O)n1` [N, D-α-[3-(4-hydroxy-2-methylamino-5-pyrimidyl)-ureido]-p-hydroxybenzyl-penicillin sodium], the MIC in [1] is 2.5 µg/mL; in [2], 2.5 µg/mL; in assay [3], > 80 µg/mL; in [4], 5 µg/mL; with streptococcus aronson it was 0.08 µg/mL; in [5] it was 40 µg/mL. Moreover, the MIC in assay [6] stood at 80 µg/mL; in assay [7], 0.3 µg/mL; in [11], 0.3 µg/mL; in [8] it was 2.5 µg/mL; in assay [9], 10 µg/mL; in assay [10], 2.5 µg/mL.

On to `CC1(C)S[C@@H]2[C@H](NC(=O)[C@H](NC(=O)Nc3cnc(NCc4ccc(Cl)cc4)nc3O)c3ccc(O)cc3)C(=O)N2[C@H]1C(=O)O` [O, D-α-[3-(2-p-chlorobenzylamino-4-hydroxy-5-pyrimidyl)-ureido]-p-hydroxybenzyl-penicillin sodium], for which the MIC in assay [1] was determined as 10 µg/mL; in assay [2], 5 µg/mL; in assay [3], 80 µg/mL; in assay [4], 1.25 µg/mL; against streptococcus aronson it was 0.02 µg/mL; in [5], 10 µg/mL. Further, the MIC amounted to 20 µg/mL in assay [6]; 0.3 µg/mL in assay [7]; 0.3 µg/mL in assay [11]; 0.65 µg/mL in assay [8]; 10 µg/mL in assay [9]; 0.3 µg/mL in assay [10].

As to `CCCNc1ncc(NC(=O)N[C@@H](C(=O)N[C@@H]2C(=O)N3[C@@H]2SC(C)(C)[C@@H]3C(=O)O)c2ccc(O)cc2)c(O)n1` [P, D-α-[3-(4-hydroxy-2-propylamino-5-pyrimidyl)-ureido]-p-hydroxybenzyl-penicillin sodium], the MIC in [1] came to 2.5 µg/mL; in assay [2], 1.25 µg/mL; in assay [3] it was 80 µg/mL; in [4], 1.25 µg/mL; against streptococcus aronson it was 0.08 µg/mL; in [5], 10 µg/mL. Besides, the MIC was 10 µg/mL in [6]; 0.08 µg/mL in [7]; 0.3 µg/mL in assay [11]; 1.25 µg/mL in assay [8]; 5 µg/mL in assay [9]; 1.25 µg/mL in assay [10].

In the case of `CC1(C)S[C@@H]2[C@H](NC(=O)[C@H](NC(=O)N3CCN(S(C)(=O)=O)C3=O)c3ccccc3)C(=O)N2[C@H]1C(=O)O` [R, reference compound], the MIC is 40 µg/mL (≈ 74.1 µM) in assay [1], 20 µg/mL (≈ 37.1 µM) in [2], 5 µg/mL (≈ 9.27 µM) in assay [8] and 10 µg/mL (≈ 18.5 µM) in [10].

For the compound `CC1(C)S[C@@H]2[C@H](NC(=O)[C@H](NC(=O)Nc3cnccc3O)c3ccccc3)C(=O)N2[C@H]1C(=O)O` [S, D-α-[(4-hydroxy-3-pyridyl)-ureido]benzylpenicillin sodium, reference compound], the minimum inhibitory concentration (MIC) worked out at 20 µg/mL in [1], 20 µg/mL in [2], 2.5 µg/mL in assay [8] and 10 µg/mL in assay [10].
